Consider 22 compounds from US5760036A, “Aminediol protease inhibitors” (E. R. Squibb & Sons, Inc., priority 1995, dated 1998).

A word on the inhibition: it is the share of the control response that was lost under treatment.

Each structure is given as a SMILES string. Read-outs that look alike come from different tables or passages of the source.

The target in this assay is T1, HIV protease (Human immunodeficiency virus type 1 group M subtype B, UniProt P04585).
T1 construct: and purified protease
The experiment in a line: HIV Protease Assay. The format is biochemical. The method in brief:
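Purified protease cleaved 450 μM octapeptide substrate in 50 mM sodium acetate pH 5.5 with 100 μg/ml BSA for 30 minutes at 37° C; product analyzed by reverse-phase HPLC at UV220 after H3PO4 quench. Inhibitors tested at final 10 μM with 4% DMSO.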

[1] abbreviates: pH 5.5, 10 μM inhibitor, 4% DMSO, 450 μM substrate, pH 5.5, 30 minutes at 37° C., RP-HPLC, read-out: HIV Protease % Inhibition at 10 μM.

Take `CC(C)C[C@H](NC(=O)OC(C)(C)C)C(O)CN(Cc1ccccc1)CC(O)[C@H](CC(C)C)NC(=O)OC(C)(C)C` (stereo partly drawn) [Compound 196, (3S,3S')-[[(Phenylmethyl)nitrilo]-bis(2-hydroxy-5-methyl-3,1-hexandiyl)]-biscarbamic acid, bis(1,1-dimethylethyl)ester]: under setting [1], the inhibition at 10 µM is 6%.

As to `CC(C)(C)OC(=O)N[C@@H](Cc1ccccc1)[C@H](O)CNC[C@@H](O)[C@H](Cc1ccccc1)NC(=O)OC1c2ccccc2CC1O` (stereo partly drawn) [Compound 215, [1S-(1R*,2S*)(trans)]-[Iminobis[2-hydroxy-1-(phenylmethyl)-3,1-propanediyl)]biscarbamic acid, 1,1-dimethylethyl 2,3-dihydro-2-hydroxy-1H-inden-1-yl ester], the “HIV Protease % Inhibition at 10 μM” value (10 μM inhibitor, 4% DMSO, 450 μM substrate, pH 5.5, 30 minutes at 37° C., RP-HPLC) turned out to be 66%.

Consider `CC(C)(C)OC(=O)N[C@@H](Cc1ccccc1)[C@H](O)CNC[C@@H](O)[C@H](Cc1ccccc1)NC(=O)OC(C)(C)CN` [Compound 216, [1S-(1R*,2S*)]-[Iminobis[2-hydroxy-1-(phenylmethyl)-3,1-propanediyl]]biscarbamic acid. 2-amino-1,1-dimethylethyl-1,1-dimethylethyl ester], for which the inhibition at 10 µM (pH 5.5, read-out: HIV Protease % Inhibition at 10 μM) is 49%.

As for `CC(C)(C)OC(=O)N[C@@H](Cc1ccccc1)[C@H](O)CNC[C@@H](O)[C@H](Cc1ccccc1)NC(=O)OC[C@H](O)CO` [Compound 231, [1S-(1R*,2S*),(S*)]-[Iminobis[2-hydroxy-1-(phenylmethyl)-3,1-propanediyl]]biscarbamic acid, 2,3-dihydroxypropyl 1,1-dimethylethyl ester], under setting [1], the inhibition at 10 µM stood at 83%.

With `CC(C)(C)OC(=O)N[C@@H](Cc1ccccc1)[C@H](O)CNC[C@@H](O)[C@H](Cc1ccccc1)NC(=O)C1c2ccccc2CC1O` (stereo partly drawn) [Compound 237, [1S-[1R*,2S*[2S*,3R*(trans)]]]-[3-[[3-[[(2,3-Dihydro-2-hydroxy-1H-inden-1-yl)carbonyl]amino]-2-hydroxy-4-phenylbutyl]amino]-2-hydroxy-1-(phenylmethyl)propyl]carbamic acid, 1,1-dimethylethyl ester], the inhibition at 10 µM under setting [1] was 54%.

In the case of `CC(C)(C)OC(=O)N[C@@H](Cc1ccccc1)[C@H](O)CNC[C@@H](O)[C@H](Cc1ccccc1)NC(=O)OC(C)(CO)CO` [Compound 251, [R-(R*,S*)]-[Iminobis[2-hydroxy-1-(phenylmethyl)-3,1-propanediyl)]biscarbamic acid, 1,1-bis(hydroxymethyl)ethyl 1,1-dimethylethyl ester], under setting [1], the inhibition at 10 µM was found to be 98%.

`CC(C)(C)OC(=O)N[C@@H](Cc1ccccc1)[C@H](O)CNC[C@@H](O)[C@H](Cc1ccccc1)NC(=O)OCc1nc(-c2ccccc2)c[nH]1` [Compound 253, [R-(R*,S*)]-[Iminobis[2-hydroxy-1-(phenylmethyl)-3,1-propanediyl)]biscarbamic acid, 1,1-dimethylethyl(4-phenyl-1H-imidazol-2-yl)methyl ester]: the inhibition at 10 µM under setting [1] was 85%.

Take `CC(C)(C)OC(=O)N[C@@H](Cc1ccccc1)[C@H](O)CNC[C@@H](O)[C@H](Cc1ccccc1)NC(=O)CC(O)CO` (stereo partly drawn) [Compound 255, [1S-[1R*,2S*(2S*,3R*)]]-[3-[[3-[(3,4-Dihydroxy-1-oxo-butyl)amino]-2-hydroxy-4-phenylbutyl]amino]-2-hydroxy-1-(phenylmethyl)propyl]carbamic acid, 1,1-dimethylethyl ester]: under setting [1], the inhibition at 10 µM was 86%.

With `CC(C)(C)OC(=O)N[C@@H](Cc1ccccc1)[C@H](O)CNC[C@@H](O)[C@H](Cc1ccccc1)NC(=O)OCc1ncc[nH]1` [Compound 268, [R-(R*,S*)]-[Iminobis[2-hydroxy-1-(phenylmethyl)-3,1-propanediyl)]biscarbamic acid, (1H-imidazol-2-yl)-methyl 1,1-dimethylethyl ester], the inhibition at 10 µM under setting [1] was 94%.

For `CC(C)(C)OC(=O)N[C@@H](Cc1ccccc1)[C@H](O)CNC[C@@H](O)[C@H](Cc1ccccc1)NC(=O)C(C)(C)C` [Compound 269, [1S-[1R*,2S*(2S*,3R*)]]-[3-[[3-[(2,2-Dimethyl-1-oxo-propyl)amino]-2-hydroxy-4-phenylbutyl]amino]-2-hydroxy-1-(phenylmethyl)propyl]carbamic acid, 1,1-dimethylethyl ester], the inhibition at 10 µM under setting [1] came out at 61%.

For the compound `CC(C)(C)OC(=O)N[C@@H](Cc1ccccc1)[C@H](O)CNC[C@@H](O)[C@H](Cc1ccccc1)NC(=O)C1c2ccccc2CN1C=O` (stereo partly drawn) [Compound 270, [1S-[1R*,2S*(2S*,3R*)]]-[3-[[3-[[(2-Formyl-2,3-dihydro-1H-isoindol-1-yl)carbonyl]amino]-2-hydroxy-4-phenylbutyl]amino]-2-hydroxy-1-(phenylmethyl)-propyl]carbamic acid 1,1-dimethylethyl ester], the inhibition at 10 µM under setting [1] came out at 27%.

`CC(C)(C)OC(=O)N[C@@H](Cc1ccccc1)[C@H](O)CNC[C@@H](O)[C@H](Cc1ccccc1)NC(=O)OC(CO)c1cccnc1` (stereo partly drawn) [Compound 277, [R-(R*,S*)]-[Iminobis[2-hydroxy-1-(phenylmethyl)-3,1-propanediyl)]biscarbamic acid, 1,1-dimethylethyl-2-hydroxy-1-(3-pyridinyl)ethyl ester]: the inhibition at 10 µM under setting [1] came to 67%.

As for `CC(C)(C)OC(=O)N[C@@H](Cc1ccccc1)[C@H](O)CNC[C@@H](O)[C@H](Cc1ccccc1)NC(=O)C(C)(C)CO` [Compound 279, [1S-[1R*,2S*(2S*,3R*)]]-[2-Hydroxy-3-[[2-hydroxy-3-[[2-(hydroxymethyl)-2-methyl-1-oxopropyl]amino]-4-phenylbutyl]amino]-1-(phenylmethyl)propyl]carbamic acid, 1,1-dimethylethyl ester], the inhibition at 10 µM under setting [1] came to 54%.

In the case of `CNC(=O)OC(C(=O)N[C@@H](Cc1ccccc1)[C@H](O)CNC[C@@H](O)[C@H](Cc1ccccc1)NC(=O)OC(C)(C)C)C(C)(C)C` (stereo partly drawn) [Compound 287, [1S-[1R*,2S*(2S*,3R*)]]-[3-[[3-[[3,3-Dimethyl-2-[[(methylamino)carbonyl]oxy]-1-oxobutyl]amino]-2-hydroxy-4-phenylbutyl]amino]-2-hydroxy-1-(phenylmethyl)propyl]-carbamic acid, 1,1-dimethylethyl ester], under setting [1], the inhibition at 10 µM worked out at 89%.

In the case of `CC(C)(C)OC(=O)N[C@@H](Cc1ccccc1)[C@H](O)CNC[C@@H](O)[C@H](Cc1ccccc1)NC(=O)OCc1nc2ccccc2[nH]1` [Compound 289, [R-(R*,S*)]-[Iminobis[2-hydroxy-1-(phenylmethyl)-3,1-propanediyl)]biscarbamic acid, (1H-benzimidazol-2-yl)methyl 1,1-dimethylethyl ester], the inhibition at 10 µM under setting [1] is 53%.

For the compound `CC(C)(C)OC(=O)N[C@@H](Cc1ccccc1)[C@H](O)CNC[C@@H](O)[C@H](Cc1ccccc1)NC(=O)C(C)(C)CCO` [Compound 291, [1S-[1R*,2S*(2S*,3R*)]]-[2-Hydroxy-3-[[2-hydroxy-3-[(4-hydroxy-2,2-dimethyl-1-oxobutyl)amino]-4-phenylbutyl]amino]-1-(phenylmethyl)propyl]carbamic acid, 1,1-dimethylethyl ester], under setting [1], the inhibition at 10 µM was found to be 73%.

In the case of `CC(C)(C)OC(=O)N[C@@H](Cc1ccccc1)[C@H](O)CNC[C@@H](O)[C@H](Cc1ccccc1)NC(=O)C(=NO)C(C)(C)C` [Compound 295, [1S-[1R*,2S*(2S*,3R*)]]-[2-Hydroxy-3-[[2-hydroxy-3-[[2-(hydroxyimino)-3,3-dimethyl-1-oxobutyl]amino]-4-phenylbutyl]amino]-1-(phenylmethyl)propyl]carbamic acid, 1,1-dimethylethyl ester], the inhibition at 10 µM under setting [1] turned out to be 82%.

On to `CON=C(C(=O)N[C@@H](Cc1ccccc1)[C@H](O)CNC[C@@H](O)[C@H](Cc1ccccc1)NC(=O)OC(C)(C)C)C(C)(C)C` [Compound 296, [1S-[1R*,2S*(2S*,3R*)]]-[2-Hydroxy-3-[[2-hydroxy-3-[[2-(methoxyimino)-3,3-dimethyl-1-oxobutyl]amino]-4-phenylbutyl]amino]-1-(phenylmethyl)propyl]carbamic acid, 1,1-dimethylethyl ester], for which, under setting [1], the inhibition at 10 µM was 37%.

For the compound `CC(C)(C)OC(=O)N[C@@H](Cc1ccccc1)[C@H](O)CNC[C@@H](O)[C@H](Cc1ccccc1)NC(=O)O[C@@H]1COC[C@H]1O` [Compound 317, [1S-(1R*,2S*), (3R-trans)l-[Iminobis[2-hydroxy-1-(phenylmethyl)-3,1-propanediyl]]bis[carbamic acid], 4-hydroxy-3-tetrahydrofuranyl 1,1-dimethylethyl ester], the inhibition at 10 µM under setting [1] was 85%.

Turning to `CC(C)(C)OC(=O)N[C@@H](Cc1ccccc1)[C@H](O)CNC[C@@H](O)[C@H](Cc1ccccc1)NC(=O)C(N)C(F)(F)F` (stereo partly drawn) [Compound 329, [1S-[1R*,2S*(2S*,3R*)]]-[3-[[3-[[(1-Amino-2,2,2-trifluoroethyl)carbonyl]amino]-2-hydroxy-4-phenylbutyl]amino]-2-hydroxy-1-(phenylmethyl)propyl]carbamic acid, 1,1-dimethylethyl ester], the inhibition at 10 µM under setting [1] stood at 84%.

In the case of `CC(C)(C)OC(=O)N[C@@H](Cc1ccccc1)[C@H](O)CNC[C@@H](O)[C@H](Cc1ccccc1)NC(=O)[C@@H](O)C(C)(C)C` [Compound 335, [1S-[1R*,2S*[2S*,3R*(R*)]]]-[3-[[3-[(2-Hydroxy-3,3-dimethyl-1-oxobutyl)amino]-2-hydroxy-4-phenylbutyl]amino]-2-hydroxy-1-(phenylmethyl)propyl]carbamic acid, 1,1-dimethylethyl ester], the inhibition at 10 µM under setting [1] was 89%.

As for `CC(C)(C)OC(=O)N[C@@H](Cc1ccccc1)[C@H](O)CNC[C@@H](O)[C@H](Cc1ccccc1OCc1ccccc1)NC(=O)OC(C)(C)C` [Compound 348, [1S-[1R*,2S*(2S*,3R*)]]-[3-[[(3-[[(1,1-Dimethylethoxy)carbonyl]amino]-2-hydroxy-4-[2-(phenylmethoxy)phenyl]butyl]amino]-2-hydroxy-1-(phenylmethyl)propyl]carbamic acid, 1,1-dimethylethyl ester], under setting [1], the inhibition at 10 µM was found to be 99%.
